Measurements from US20260022142A1, “MACROCYCLIC IMMUNOMODULATORS” (Bristol-Myers Squibb Company, priority 2022, published 2026).
Bridge positions count the residues as written; N and C are the ends. Square brackets hold non-standard residues; d marks the D form. Peptide text beside a SMILES is read from it. * marks the point of attachment. ξ: configuration not given here. Bip = N[C@@H](Cc1ccc(-c2ccccc2)cc1)C(=O)O; Phe(3-Me) = Cc1cccc(C[C@H](N)C(=O)O)c1; Val(3-OH) = CC(C)(O)[C@H](N)C(=O)O; Cha = N[C@@H](CC1CCCCC1)C(=O)O; Thr(3ξ) = CC(O)[C@H](N)C(=O)O; NMeNle = CCCC[C@H](NC)C(=O)O; 12Ado = NCCCCCCCCCCCC(=O)O; Carboxymethyl = O=C(O)C*; Orn = NCCC[C@H](N)C(=O)O; Aun = NCCCCCCCCCCC(=O)O; Dab = NCC[C@H](N)C(=O)O

Biological target: T1, PD-1/PD-L1 interaction (PE-labeled human PD-L1-Ig binding to Jurkat cell line over-expressing human PD-1) (Homo sapiens, UniProt Q15116)
T1 construct: expressed in transfected cells; host or cells: Jurkat
Assay: Jurkat-PD-1 Cell Binding High-Content Screening Assay (CBA)
Type: cell-based
Conditions: Jurkat cell line over-expressing human PD-1; PE-labeled PD-L1-Ig 20 nM final; read-out: Jurkat hPD1-PDL1 IC50
Summary of the method: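 Binding of fluorescent PD-L1-Ig (phycoerythrin on Ig tag, 20 nM final, 1 h) measured by high-content imaging of fixed, Hoechst-counterstained Jurkat-hPD-1 cells. Compound added 2 h at 37° C beforehand, in DMEM with 10% fetal calf serum.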

T1 sequence (Q15116 25-288): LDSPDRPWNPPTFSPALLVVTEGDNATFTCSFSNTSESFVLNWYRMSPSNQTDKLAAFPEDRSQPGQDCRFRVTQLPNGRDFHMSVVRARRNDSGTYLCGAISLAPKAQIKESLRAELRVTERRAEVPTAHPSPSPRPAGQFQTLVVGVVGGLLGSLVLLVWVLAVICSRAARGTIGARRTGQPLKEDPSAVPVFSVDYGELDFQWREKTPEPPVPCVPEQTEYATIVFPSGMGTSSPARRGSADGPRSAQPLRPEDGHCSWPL

| IC50 | Compound |
| --- | --- |
| 21.5 nM | Cc1cccc(C[C@@H]2NC(=O)[C@H](CC(=O)O)NC(=O)[C@H](Cc3ccc(OCC(=O)O)cc3)NC(=O)[C@H](CCN)NC(=O)CSC[C@@H](C(=O)N[C@@H](CCN)C(=O)N[C@@H](CO)C(=O)NCCCCCCCCCCCC(=O)O)NC(=O)[C@H](CCCN)NC(=O)[C@H](C(C)(C)O)NC(=O)[C@H](CC3CCCCC3)NC(=O)[C@H](CCN)NC(=O)[C@@H](CC(C)C)NC(=O)[C@H](CCCN)NC(=O)[C@H](Cc3ccc(OCC(=O)O)cc3)NC(=O)[C@H](Cc3ccc(-c4ccccc4)cc3)NC(=O)[C@H](Cc3ccc(OCC(=O)O)cc3)NC2=O)c1 [Compound 3624] ({CH2CO}-[Dab]Y(Carboxymethyl)D[Phe(3-Me)]Y(Carboxymethyl)[Bip]Y(Carboxymethyl)[Orn][dL][Dab][Cha][Val(3-OH)][Orn]C[Dab]S[12Ado]-OH; thioether N-14) |
| 23.3 nM | Cc1cccc(C[C@@H]2NC(=O)[C@H](CC(=O)O)NC(=O)[C@H](Cc3ccc(OCC(=O)O)cc3)NC(=O)[C@H](CCN)NC(=O)CSC[C@@H](C(=O)N[C@@H](CCN)C(=O)N[C@@H](CO)C(=O)NCCCCCCCCCCCC(=O)O)NC(=O)[C@H](CO)NC(=O)[C@H](C(C)(C)O)NC(=O)[C@H](CC3CCCCC3)NC(=O)[C@H](CCN)NC(=O)[C@@H](CC(C)C)NC(=O)[C@H](CCCN)NC(=O)[C@H](Cc3ccc(OCC(=O)O)cc3)NC(=O)[C@H](Cc3ccc(-c4ccccc4)cc3)NC(=O)[C@H](Cc3ccc(OCC(=O)O)cc3)NC2=O)c1 [Compound 3625] ({CH2CO}-[Dab]Y(Carboxymethyl)D[Phe(3-Me)]Y(Carboxymethyl)[Bip]Y(Carboxymethyl)[Orn][dL][Dab][Cha][Val(3-OH)]SC[Dab]S[12Ado]-OH; thioether N-14) |
| 7.3 nM | Cc1cccc(C[C@@H]2NC(=O)[C@H](CC(=O)O)NC(=O)[C@H](Cc3ccc(OCC(=O)O)cc3)NC(=O)[C@H](CCN)NC(=O)CSC[C@@H](C(=O)N[C@@H](CCN)C(=O)NCCCCCCCCCCCC(=O)O)NC(=O)[C@H](CCCN)NC(=O)[C@H](C(C)(C)O)NC(=O)[C@H](CC3CCCCC3)NC(=O)[C@H](CCN)NC(=O)[C@@H](CC(C)C)NC(=O)[C@H](CCCN)NC(=O)[C@H](Cc3ccc(OCC(=O)O)cc3)NC(=O)[C@H](Cc3ccc(-c4ccccc4)cc3)NC(=O)[C@H](Cc3ccc(OCC(=O)O)cc3)NC2=O)c1 [Compound 3626] ({CH2CO}-[Dab]Y(Carboxymethyl)D[Phe(3-Me)]Y(Carboxymethyl)[Bip]Y(Carboxymethyl)[Orn][dL][Dab][Cha][Val(3-OH)][Orn]C[Dab][12Ado]-OH; thioether N-14) |
| 36.7 nM | CC(=O)NCCCC[C@@H]1NC(=O)[C@H](Cc2ccc(-c3ccccc3)cc2)NC(=O)[C@H](Cc2ccc(O)cc2)NC(=O)[C@H](Cc2cccc(C)c2)NC(=O)[C@H](CC(=O)O)NC(=O)[C@H](Cc2ccc(OCC(=O)O)cc2)NC(=O)[C@H](CCN)NC(=O)CSC[C@@H](C(=O)N[C@@H](CCN)C(=O)N[C@@H](CO)C(=O)NCCCCCCCCCCCC(=O)O)NC(=O)[C@H](CO)NC(=O)[C@H](CCCCN)NC(=O)[C@H](CC2CCCCC2)NC(=O)[C@H](CCN)NC(=O)[C@@H](CC(C)C)NC(=O)[C@H](CCCN)NC1=O [Compound 3627] ({CH2CO}-[Dab]Y(Carboxymethyl)D[Phe(3-Me)]Y[Bip]K(Ac)[Orn][dL][Dab][Cha]KSC[Dab]S[12Ado]-OH; thioether N-14) |
| 23 nM | Cc1cccc(C[C@@H]2NC(=O)[C@H](CC(=O)O)NC(=O)[C@H](Cc3ccc(OCC(=O)O)cc3)NC(=O)[C@H](Cc3ccccc3)NC(=O)CSC[C@@H](C(=O)N[C@@H](CCN)C(=O)NCCCCCCCCCCC(=O)O)NC(=O)[C@H](CO)NC(=O)[C@H](C(C)(C)O)NC(=O)[C@H](CC3CCCCC3)NC(=O)[C@H](CCN)NC(=O)[C@@H](CC(C)C)NC(=O)[C@H](CCCN)NC(=O)[C@H](Cc3ccc(OCC(=O)O)cc3)NC(=O)[C@H](Cc3ccc(-c4ccccc4)cc3)NC(=O)[C@H](Cc3ccc(OCC(=O)O)cc3)NC2=O)c1 [Compound 3628] ({CH2CO}-FY(Carboxymethyl)D[Phe(3-Me)]Y(Carboxymethyl)[Bip]Y(Carboxymethyl)[Orn][dL][Dab][Cha][Val(3-OH)]SC[Dab][Aun]-OH; thioether N-14) |
| 8.4 nM | Cc1cccc(C[C@@H]2NC(=O)[C@H](CC(=O)O)NC(=O)[C@H](Cc3ccc(OCC(=O)O)cc3)NC(=O)[C@H](CCN)NC(=O)CSC[C@@H](C(=O)N[C@@H](CCN)C(=O)NCCCCCCCCCCC(=O)O)NC(=O)[C@H](CO)NC(=O)[C@H](C(C)(C)O)NC(=O)[C@H](CC3CCCCC3)NC(=O)[C@H](CCN)NC(=O)[C@@H](CC(C)C)NC(=O)[C@H](CCCN)NC(=O)[C@H](Cc3ccc(OCC(=O)O)cc3)NC(=O)[C@H](Cc3ccc(-c4ccccc4)cc3)NC(=O)[C@H](Cc3ccc(OCC(=O)O)cc3)NC2=O)c1 [Compound 3629] ({CH2CO}-[Dab]Y(Carboxymethyl)D[Phe(3-Me)]Y(Carboxymethyl)[Bip]Y(Carboxymethyl)[Orn][dL][Dab][Cha][Val(3-OH)]SC[Dab][Aun]-OH; thioether N-14) |
| 6.7 nM | Cc1cccc(C[C@@H]2NC(=O)[C@H](CC(=O)O)NC(=O)[C@H](Cc3ccc(OCC(=O)O)cc3)NC(=O)[C@H](CCN)NC(=O)CSC[C@@H](C(=O)N[C@@H](CCN)C(=O)NCCCCCCCCCCC(=O)O)NC(=O)[C@H](CO)NC(=O)[C@H](C(C)O)NC(=O)[C@H](CC3CCCCC3)NC(=O)[C@H](CCN)NC(=O)[C@@H](CC(C)C)NC(=O)[C@H](CCCN)NC(=O)[C@H](Cc3ccc(OCC(=O)O)cc3)NC(=O)[C@H](Cc3ccc(-c4ccccc4)cc3)NC(=O)[C@H](Cc3ccc(OCC(=O)O)cc3)NC2=O)c1 (stereo partly drawn) [Compound 3630] ({CH2CO}-[Dab]Y(Carboxymethyl)D[Phe(3-Me)]Y(Carboxymethyl)[Bip]Y(Carboxymethyl)[Orn][dL][Dab][Cha][Thr(3ξ)]SC[Dab][Aun]-OH; thioether N-14) |
| 16 nM | Cc1cccc(C[C@@H]2NC(=O)[C@H](CC(=O)O)NC(=O)[C@H](Cc3ccc(OCC(=O)O)cc3)NC(=O)[C@H](CCN)NC(=O)CSC[C@@H](C(=O)N[C@@H](CCN)C(=O)NCCCCCCCCCCC(=O)O)NC(=O)[C@H](CO)NC(=O)[C@H](CCCCN)NC(=O)[C@H](CC3CCCCC3)NC(=O)[C@H](CCN)NC(=O)[C@@H](CC(C)C)NC(=O)[C@H](CCCN)NC(=O)[C@H](Cc3ccc(OCC(=O)O)cc3)NC(=O)[C@H](Cc3ccc(-c4ccccc4)cc3)NC(=O)[C@H](Cc3ccc(OCC(=O)O)cc3)NC2=O)c1 [Compound 3631] ({CH2CO}-[Dab]Y(Carboxymethyl)D[Phe(3-Me)]Y(Carboxymethyl)[Bip]Y(Carboxymethyl)[Orn][dL][Dab][Cha]KSC[Dab][Aun]-OH; thioether N-14) |
| 8.7 nM | Cc1cccc(C[C@@H]2NC(=O)[C@H](CC(=O)O)NC(=O)[C@H](Cc3ccc(OCC(=O)O)cc3)NC(=O)[C@H](CCN)NC(=O)CSC[C@@H](C(=O)N[C@@H](CCN)C(=O)NCCCCCCCCCCC(=O)O)NC(=O)[C@H](CO)NC(=O)[C@H](Cc3cnc[nH]3)NC(=O)[C@H](CC3CCCCC3)NC(=O)[C@H](CCN)NC(=O)[C@@H](CC(C)C)NC(=O)[C@H](CCCN)NC(=O)[C@H](Cc3ccc(OCC(=O)O)cc3)NC(=O)[C@H](Cc3ccc(-c4ccccc4)cc3)NC(=O)[C@H](Cc3ccc(OCC(=O)O)cc3)NC2=O)c1 [Compound 3632] ({CH2CO}-[Dab]Y(Carboxymethyl)D[Phe(3-Me)]Y(Carboxymethyl)[Bip]Y(Carboxymethyl)[Orn][dL][Dab][Cha]HSC[Dab][Aun]-OH; thioether N-14) |
| 8.6 nM | Cc1cccc(C[C@@H]2NC(=O)[C@H](CC(=O)O)NC(=O)[C@H](Cc3ccc(OCC(=O)O)cc3)NC(=O)[C@H](CCN)NC(=O)CSC[C@@H](C(=O)N[C@@H](CCN)C(=O)NCCCCCCCCCCC(=O)O)NC(=O)[C@H](Cc3cnc[nH]3)NC(=O)[C@H](C(C)O)NC(=O)[C@H](CC3CCCCC3)NC(=O)[C@H](CCN)NC(=O)[C@@H](CC(C)C)NC(=O)[C@H](CCCN)NC(=O)[C@H](Cc3ccc(OCC(=O)O)cc3)NC(=O)[C@H](Cc3ccc(-c4ccccc4)cc3)NC(=O)[C@H](Cc3ccc(OCC(=O)O)cc3)NC2=O)c1 (stereo partly drawn) [Compound 3633] ({CH2CO}-[Dab]Y(Carboxymethyl)D[Phe(3-Me)]Y(Carboxymethyl)[Bip]Y(Carboxymethyl)[Orn][dL][Dab][Cha][Thr(3ξ)]HC[Dab][Aun]-OH; thioether N-14) |
| 6.3 nM | Cc1cccc(C[C@@H]2NC(=O)[C@H](CC(=O)O)NC(=O)[C@H](Cc3ccc(OCC(=O)O)cc3)NC(=O)[C@H](CCN)NC(=O)CSC[C@@H](C(=O)N[C@@H](CCN)C(=O)NCCCCCCCCCCC(=O)O)NC(=O)[C@H](CCCN)NC(=O)[C@H](C(C)(C)O)NC(=O)[C@H](CC3CCCCC3)NC(=O)[C@H](CCN)NC(=O)[C@@H](CC(C)C)NC(=O)[C@H](CCCN)NC(=O)[C@H](Cc3ccc(OCC(=O)O)cc3)NC(=O)[C@H](Cc3ccc(-c4ccccc4)cc3)NC(=O)[C@H](Cc3ccc(OCC(=O)O)cc3)NC2=O)c1 [Compound 3634] ({CH2CO}-[Dab]Y(Carboxymethyl)D[Phe(3-Me)]Y(Carboxymethyl)[Bip]Y(Carboxymethyl)[Orn][dL][Dab][Cha][Val(3-OH)][Orn]C[Dab][Aun]-OH; thioether N-14) |
| 34.9 nM | CCCC[C@H]1C(=O)N[C@@H](Cc2ccc(OCC(=O)O)cc2)C(=O)N[C@@H](CC(=O)O)C(=O)N[C@@H](Cc2cccc(C)c2)C(=O)N[C@@H](Cc2ccc(OCC(=O)O)cc2)C(=O)N[C@@H](Cc2ccc(-c3ccccc3)cc2)C(=O)N[C@@H](Cc2ccc(OCC(=O)O)cc2)C(=O)N[C@@H](CCCN)C(=O)N[C@H](CC(C)C)C(=O)N[C@@H](CCN)C(=O)N[C@@H](CC2CCCCC2)C(=O)N[C@@H](C(C)(C)O)C(=O)N[C@@H](CO)C(=O)N[C@H](C(=O)N[C@@H](CCN)C(=O)NCCCCCCCCCCC(=O)O)CSCC(=O)N1C [Compound 3635] ({CH2CO}-[NMeNle]Y(Carboxymethyl)D[Phe(3-Me)]Y(Carboxymethyl)[Bip]Y(Carboxymethyl)[Orn][dL][Dab][Cha][Val(3-OH)]SC[Dab][Aun]-OH; thioether N-14) |
